The results in this text go back to patent US7355055B2, “Compounds for treatment of lipase-mediated diseases” (Reliance Life Sciences Pvt. Ltd., priority 2005, dated 2008).

Structures can show the parent of a compound that is named as a salt.

On to `CCCCCCCCCCCC1=C(OC(=O)c2ccccc2Cl)C(=O)C=C(OC(=O)c2ccccc2Cl)C1=O` (as salt: Na) [Structure #8, 2,5-bis-(2-chlorophenylcarbonyloxy)-3-undecyl-1,4-benzoquinone], for which the melting point was in the range of 56.2 to 57.8 °C.

In turn, `CCCCCCCCCCCC1=C(OC(=O)c2ccccc2[N+](=O)[O-])C(=O)C=C(OC(=O)c2ccccc2[N+](=O)[O-])C1=O` (as salt: Na) [Structure #14, 2,5-bis-(2-nitrophenylcarbonyloxy)-3-undecyl-1,4-benzoquinone] displayed a melting point of 72.2 to 73.8 °C.

`CCCCCCCCCCCC1=C(OC(=O)c2cccc(C)c2)C(=O)C=C(OC(=O)c2cccc(C)c2)C1=O` (as salt: Na) [Structure #13, 2,5-bis-(3-methylphenylcarbonyloxy)-3-undecyl-1,4-benzoquinone] showed a melting point of 80.4 to 81.7 °C.

Regarding `CCCCCCCCCCCC1=C(OC(=O)c2ccc(OC)cc2)C(=O)C=C(OC(=O)c2ccc(OC)cc2)C1=O` (as salt: Na) [Structure #18, 2,5-bis-(4-methoxyphenylcarbonyloxy)-3-undecyl-1,4-benzoquinone], the melting point is 99.2 to 100.5 °C.

`CCCCCCCCCCCC1=C(OC(=O)c2cccc(Cl)c2)C(=O)C=C(OC(=O)c2cccc(Cl)c2)C1=O` (as salt: Na) [Structure #7, 2,5-bis-(3-chlorophenylcarbonyloxy)-3-undecyl-1,4-benzoquinone]: the melting point lay within 102.8 to 104.6 °C.
